Data: patent US20220185802A1, “BENZOXAZINE MONOMERS AND POLYMERIC COATINGS” (LUXEMBOURG INSTITUTE OF SCIENCE AND TECHNOLOGY (LIST), priority 2019, published 2022)

Tests used:
[1] = tested on: THP-1 cells; assay: Pro-inflammatory activity of coated samples (FIG. 20); format: cell-based, human; conditions: samples coated with film derived from the compound (monomers in combination with P-e; P-e alone)
From the text: (§1) In human, inflammation can arise through the activation of nuclear factor-kappaB (NF-κB), a pivotal transcription factor in chronic inflammatory diseases, inducing the expression of numerous inflammation related-genes such as those for tumor necrosis factor α (TNFα) and cytokines such as IL-1β, IL-10, and IL-6 or IL-8 (Medzhitov R., Nature, 2008, 454, 428-435). In the present invention, an inflammation-relevant human cell line, i.e. the monocytes THP-1 cells, are used to evaluate the potential of the coatings to reduce the inflammation. Their cytotoxicity towards are first evaluated using the resazurin reduction test (O'Brien J. et al., Eur. J. Biochem., 2000, 267, 5421-5426.) General anti-inflammatory properties are then determined using THP-1 cells transfected with a reporter plasmid expressing the secreted alkaline phosphatase (SEAP) gene under the control of an NF-κB-inducible promoter. TNFα are used as an inflammation inducer and the data are expressed as percentage inhibition of NF-κB activation. In addition, the effects of the most promising monomers is further evaluated on inflammation-related genes by real time qPCR using THP-1 cells differentiated into macrophages (Andre C. M. et al., J. Agric. Food. Chem, 2013, 61, 2773-2779) and IL-1β, IL-10, IL-6, and COX-2 as markers (Kaulmann A. et al., Mol. Nutr. Food Res., 2016, 60, 992-1005).

[2] = tested on: NF-κB activation; assay: Inflammation inhibitory activity, NF-κB-inducible SEAP reporter in THP-1 cells with TNFα as inducer; format: cell-based, human; conditions: samples coated with polymer formed from the monomer in combination with P-e, film about 120 μm
From the text: as §1

Structure (SMILES) | pro-inflammatory properties [1] | inhibition of the inflammation ([2]; TNFα as inducer) [%] | anti-inflammatory effect ([2]; in comparison with P-e or 13)
CC=Cc1cc2c(c(OC)c1)OCN(Cc1ccco1)C2 [Monomer 12] | only the sample coated with the film derived from compound 13 shows a trend | ~20 | strong anti-inflammatory effect
c1ccc2c(c1)CN(CCN1COc3ccccc3C1)CO2 [P-e, reference compound] | only the sample coated with the film derived from compound 13 shows a trend |  | 
